From article PMC6171417, “Carbonic anhydrase inhibition with a series of novel benzenesulfonamide-triazole conjugates” (Journal of Enzyme Inhibition and Medicinal Chemistry, 2018)

Tests used:
Assay in all cases: stopped-flow CO2 hydrase assay
Type in all cases: biochemical
[1] = biological target: T1, hCA I (Homo sapiens, UniProt P00915)
T1 construct: gene CA1; recombinant, obtained in-house as reported earlier; cytosolic
Source text: stopped-flow CO2 hydrase assay on hCA I

[2] = biological target: T2, hCA IV (Homo sapiens, UniProt P22748)
T2 construct: gene CA4; recombinant, obtained in-house as reported earlier
Source text: stopped-flow CO2 hydrase assay on hCA IV

[3] = biological target: T3, hCA II (Homo sapiens, UniProt P00918)
T3 construct: gene CA2; recombinant, obtained in-house as reported earlier; cytosolic
Source text: stopped-flow CO2 hydrase assay on hCA II

[4] = biological target: T4, hCA IX (Homo sapiens, UniProt Q16790)
T4 construct: gene CA9; recombinant, obtained in-house as reported earlier
Source text: stopped-flow CO2 hydrase assay on hCA IX

T1 sequence (P00915 2-261): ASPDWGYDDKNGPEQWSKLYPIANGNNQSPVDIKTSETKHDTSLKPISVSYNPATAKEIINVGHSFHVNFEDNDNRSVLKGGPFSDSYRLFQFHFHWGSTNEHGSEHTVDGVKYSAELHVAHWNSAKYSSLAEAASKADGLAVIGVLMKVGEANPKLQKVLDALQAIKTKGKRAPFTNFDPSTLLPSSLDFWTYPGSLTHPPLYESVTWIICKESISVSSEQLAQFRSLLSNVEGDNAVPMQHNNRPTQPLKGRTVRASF
T2 sequence (P22748 19-284): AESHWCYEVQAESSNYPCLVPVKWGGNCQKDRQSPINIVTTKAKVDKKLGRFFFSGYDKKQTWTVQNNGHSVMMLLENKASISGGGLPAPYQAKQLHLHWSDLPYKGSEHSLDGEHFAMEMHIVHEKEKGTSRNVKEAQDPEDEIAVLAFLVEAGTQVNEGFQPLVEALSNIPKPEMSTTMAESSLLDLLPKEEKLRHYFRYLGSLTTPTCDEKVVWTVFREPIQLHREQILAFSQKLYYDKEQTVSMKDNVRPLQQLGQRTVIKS

Row | SMILES | Ki [1] | Ki [2] | Ki [3] | Ki [4]
1 | N#Cc1nnn(-c2ccc(S(N)(=O)=O)cc2)c1NCC(=O)c1ccccc1 [compound 7, 4-(4-cyano-5-((2-oxo-2-phenylethyl)amino)-1H-1,2,3-triazol-1-yl)benzenesulfonamide] | 1790 nM | 745 nM | 562 nM | 283 nM
2 | CC(=O)CC(=O)Nc1c(C#N)nnn1-c1ccc(S(N)(=O)=O)cc1 [compound 6, N-(4-cyano-1-(4-sulfamoylphenyl)-1H-1,2,3-triazol-5-yl)-3-oxobutanamide] | 2860 nM | 472 nM | 684 nM | 410 nM
3 | N#Cc1nnn(-c2ccc(S(N)(=O)=O)cc2)c1NC(=O)CCl [compound 5, 2-chloro-N-(4-cyano-1-(4-sulfamoylphenyl)-1H-1,2,3-triazol-5-yl)acetamide] | 2550 nM | 1200 nM | 518 nM | 454 nM
4 | N#Cc1nnn(-c2ccc(S(N)(=O)=O)cc2)c1/N=C/c1ccccc1Cl [compound 8, (E)-4-(5-((2-chlorobenzylidene)amino)-4-cyano-1H-1,2,3-triazol-1-yl)-benzenesulfonamide] | 5140 nM | > 10000 nM | 6130 nM | 1770 nM
5 | N#Cc1nnn(-c2ccc(S(N)(=O)=O)cc2)c1N [compound 3, 4-(5-amino-4-cyano-1H-1,2,3-triazol-1-yl)benzenesulfonamide] | 1940 nM | 2270 nM | 16.7 nM | 118 nM
6 | Nc1c(C2=NCCN2)nnn1-c1ccc(S(N)(=O)=O)cc1 [compound 4, 4-(5-amino-4-(4,5-dihydro-1H-imidazol-2-yl)-1H-1,2,3-triazol-1-yl)benzenesulfonamide] | 9940 nM | 3190 nM | 6840 nM | 3710 nM
7 | N#Cc1nnn(-c2ccc(S(N)(=O)=O)cc2)c1/N=C/c1ccc(Cl)cc1 [compound 9, (E)-4-(5-((4-chlorobenzylidene)amino)-4-cyano-1H-1,2,3-triazol-1-yl) benzenesulfonamide] | 1600 nM | 4670 nM | 94.5 nM | 307 nM
8 | [N-]=[N+]=Nc1ccc(S(N)(=O)=O)cc1 [compound 2, 4-azido benzenesulfonamide] | – | > 10000 nM | – | 235 nM

Results, then the molecule that gave them:

Row | Ki [1] | Ki [2] | Ki [3] | Ki [4] | SMILES
9 | 790 nM | 167 nM | 957 nM | 287 nM | N#Cc1c(N)c2nnn(-c3ccc(S(N)(=O)=O)cc3)c2[nH]c1=O [compound 13, 4-(7-amino-6-cyano-5-oxo-4,5-dihydro-3H-[1,2,3]triazolo[4,5-b]pyridin-3-yl) benzenesulfonamide]
10 | 2690 nM | 2580 nM | 230 nM | 407 nM | N#Cc1c(-c2ccccc2Cl)nc2c(nnn2-c2ccc(S(N)(=O)=O)cc2)c1N [compound 15, 4-(7-amino-5-(2-chlorophenyl)-6-cyano-3H-[1,2,3]triazolo[4,5-b]pyridin-3-yl)benzenesulfonamide]
11 | 5840 nM | 5030 nM | 2370 nM | 3810 nM | N=c1c2nnn(-c3ccc(S(N)(=O)=O)cc3)c2[nH]c(=S)n1-c1ccc(S(=O)(=O)Nc2cnc3ccccc3n2)cc1 [compound 21]
12 | 2920 nM | 3410 nM | 179 nM | 451 nM | CN(C)c1ccc(/C=N/c2c(C#N)nnn2-c2ccc(S(N)(=O)=O)cc2)cc1 [compound 10, (E)-4-(4-cyano-5-((4-(dimethylamino)benzylidene)amino)-1H-1,2,3-triazol-1-yl)benzenesulfonamide]
13 | 2800 nM | 2270 nM | 589 nM | 158 nM | N=c1c2nnn(-c3ccc(S(N)(=O)=O)cc3)c2[nH]c(=O)n1-c1ccccc1 [compound 19, 4-(7-imino-5-oxo-6-phenyl-4,5,6,7-tetrahydro-3H-[1,2,3]triazolo[4,5-d]pyrimidin-3-yl)benzenesulfonamide]
14 | 1250 nM | 676 nM | 57 nM | 46.4 nM | N#Cc1c(-c2ccccc2)nc2c(nnn2-c2ccc(S(N)(=O)=O)cc2)c1N [compound 14, 4-(7-amino-6-cyano-5-phenyl-3H-[1,2,3]triazolo[4,5-b]pyridin-3-yl)benzenesulfonamide]
15 | 8100 nM | 2610 nM | 90.1 nM | 105 nM | Cc1ccc(S(=O)(=O)Nc2c(C#N)nnn2-c2ccc(S(N)(=O)=O)cc2)cc1 [compound 12, N-(4-cyano-1-(4-sulfamoylphenyl)-1H-1,2,3-triazol-5-yl)-4-methylbenzenesulfonamide]
